The test deals with T1, hTLR7 (Homo sapiens, UniProt Q9NYK1).
T1 construct: expressed in transfected cells; host or cells: HEK-Blue hTLR7 reporter cell line
T1 sequence (Q9NYK1 27-1049): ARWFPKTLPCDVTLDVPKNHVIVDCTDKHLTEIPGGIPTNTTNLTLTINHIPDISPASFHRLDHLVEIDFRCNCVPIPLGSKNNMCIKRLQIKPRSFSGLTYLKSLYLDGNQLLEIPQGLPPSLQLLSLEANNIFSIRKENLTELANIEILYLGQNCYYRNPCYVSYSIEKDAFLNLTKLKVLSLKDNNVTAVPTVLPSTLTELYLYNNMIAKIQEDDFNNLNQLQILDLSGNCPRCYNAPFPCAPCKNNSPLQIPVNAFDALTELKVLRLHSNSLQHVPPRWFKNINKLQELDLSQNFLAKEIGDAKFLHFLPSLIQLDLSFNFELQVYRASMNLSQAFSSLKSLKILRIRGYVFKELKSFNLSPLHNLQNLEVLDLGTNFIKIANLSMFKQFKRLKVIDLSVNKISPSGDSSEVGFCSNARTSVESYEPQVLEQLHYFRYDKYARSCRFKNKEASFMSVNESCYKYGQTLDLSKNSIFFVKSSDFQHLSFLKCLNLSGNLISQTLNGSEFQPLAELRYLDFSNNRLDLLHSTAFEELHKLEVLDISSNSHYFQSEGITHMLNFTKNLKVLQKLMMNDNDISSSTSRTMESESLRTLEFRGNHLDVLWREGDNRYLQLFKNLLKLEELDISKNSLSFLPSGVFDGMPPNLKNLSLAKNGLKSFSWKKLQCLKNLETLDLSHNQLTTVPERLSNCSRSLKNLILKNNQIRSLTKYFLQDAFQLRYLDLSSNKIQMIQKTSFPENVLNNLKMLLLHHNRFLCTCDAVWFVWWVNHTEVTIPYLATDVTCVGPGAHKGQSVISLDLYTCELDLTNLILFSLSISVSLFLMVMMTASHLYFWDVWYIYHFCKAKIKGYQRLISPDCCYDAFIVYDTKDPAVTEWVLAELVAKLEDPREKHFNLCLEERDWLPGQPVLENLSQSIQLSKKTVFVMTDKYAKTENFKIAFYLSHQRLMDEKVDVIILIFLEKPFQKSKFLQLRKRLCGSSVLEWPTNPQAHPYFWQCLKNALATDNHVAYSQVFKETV
The test can be described thus: HEK-Blue hTLR7 reporter assay (NF-kB-induced SEAP, Quanti-Blue). The test is classed as cell-based. To be noted: read-out: EC50. As for the experimental part:
HEK-Blue™ hTLR7 cells were incubated in HEK-Blue™ Detection medium and stimulated with increasing concentrations of TLR7 or TLR8 or TLR7/8 agonists. […] The EC50 was determined from dose-response curve using Prism Software.
On the technique in general: A reporter such as luciferase makes a cellular process visible.

The mark [1] stands for this setting: Table 19, TLR7, drug-linkers with PEG shielding.

Each structure is given as a SMILES string. Where two headings read alike, the source gives them in different places.

The source of these data is patent publication US20230302150A1, “ANTIBODY-TLR AGONIST CONJUGATES, METHODS AND USES THEREOF” (Ambrx, Inc., priority 2020, published 2023).

For orientation: EC50 means the concentration needed to bring the measured effect to its halfway point. Consider `CCCCOc1nc(N)c2[nH]c(=O)n(Cc3ccc(CN4CCC(CCNC(=O)[C@H](CCCCNC(=O)CON)NC(=O)OCc5ccc(NC(=O)[C@H](C)NC(=O)[C@@H](NC(=O)CCOCCOCCOCCOCCOCCOCCOCCOCCOCCOCCOCCOCCOCCOCCOCCOCCOCCOCCOCCOCCOCCOCCOCCOC)C(C)C)cc5)CC4)cc3)c2n1` [AXC-925, 4-((S)-2-((S)-3-methyl-2-PEG24-amidobutanamido)propanamido)benzyl ((S)-1-((2-(1-(4-((6-amino-2-butoxy-8-oxo-7,8-dihydro-9H-purin-9-yl)methyl)benzyl)piperidin-4-yl)ethyl)amino)-6-(2-(aminooxy)acetamido)-1-oxohexan-2-yl)carbamate], for which the concentration for a half-maximal effect (EC50) (Table 18, TLR7, PEG shielding) was found to be 1590 nM.
On the same count and under the same terms, as for `CCCCOc1nc(N)c2[nH]c(=O)n(Cc3ccc(CN4CCC(CCNC(=O)[C@H](CCCCNC(=O)CON)NC(=O)OCc5ccc(NC(=O)[C@H](C)NC(=O)[C@@H](NC(C)=O)C(C)C)cc5)CC4)cc3)c2n1` [AXC-926, 4-((S)-2-((S)-2-acetamido-3-methylbutanamido)propanamido)benzyl ((S)-1-((2-(1-(4-((6-amino-2-butoxy-8-oxo-7,8-dihydro-9H-purin-9-yl)methyl)benzyl)piperidin-4-yl)ethyl)amino)-6-(2-(aminooxy)acetamido)-1-oxohexan-2-yl)carbamate], the figure is 824 nM.
Turning to `CCCCOc1nc(N)c2[nH]c(=O)n(Cc3ccc(CN4CCC(CCNC(=O)[C@@H](N)Cc5ccc(Cn6cc(CON)nn6)cc5)CC4)cc3)c2n1` [AXC-931, (S)-2-amino-N-(2-(1-(4-((6-amino-2-butoxy-8-oxo-7,8-dihydro-9H-purin-9-yl)methyl)benzyl)piperidin-4-yl)ethyl)-3-(4-((4-((aminooxy)methyl)-1H-1,2,3-triazol-1-yl)methyl)phenyl)propanamide], under setting [1], the EC50 came to 490 nM.
Still for that read-out and setting: as for `CCCCOc1nc(N)c2[nH]c(=O)n(Cc3ccc(CN4CCC(CCNC(=O)[C@@H](N)Cn5cc(CON)nn5)CC4)cc3)c2n1` [AXC-932, (S)-2-amino-N-(2-(1-(4-((6-amino-2-butoxy-8-oxo-7,8-dihydro-9H-purin-9-yl)methyl)benzyl)piperidin-4-yl)ethyl)-3-(4-((aminooxy)methyl)-1H-1,2,3-triazol-1-yl)propanamide], the figure is 156 nM.
The same measure, in the same setting: as for `CCCCOc1nc(N)c2[nH]c(=O)n(Cc3ccc(CN4CCC(CCNC(=O)[C@@H](N)CO)CC4)cc3)c2n1` [AXC-933, (S)-2-amino-N-(2-(1-(4-((6-amino-2-butoxy-8-oxo-7,8-dihydro-9H-purin-9-yl)methyl)benzyl)piperidin-4-yl)ethyl)-3-hydroxypropanamide], the figure is 40 nM; as for `CCCCOc1nc(N)c2[nH]c(=O)n(Cc3ccc(CN4CCC(CCNC(=O)[C@@H](N)Cc5ccc(O)cc5)CC4)cc3)c2n1` [AXC-934, (S)-2-amino-N-(2-(1-(4-((6-amino-2-butoxy-8-oxo-7,8-dihydro-9H-purin-9-yl)methyl)benzyl)piperidin-4-yl)ethyl)-3-(4-hydroxyphenyl)propanamide], 10.3 nM.
On the same count and under the same terms, as for `CCCCOc1nc(N)c2[nH]c(=O)n(Cc3ccc(CN4CCC(CCNC(=O)[C@@H](N)CCCCn5cc(CON)nn5)CC4)cc3)c2n1` [AXC-935, (S)-2-amino-N-(2-(1-(4-((6-amino-2-butoxy-8-oxo-7,8-dihydro-9H-purin-9-yl)methyl)benzyl)piperidin-4-yl)ethyl)-6-(4-((aminooxy)methyl)-1H-1,2,3-triazol-1-yl)hexanamide], the figure is 40 nM; as for `CCCCOc1nc(N)c2[nH]c(=O)n(Cc3ccc(CN4CCC(CCNC(=O)[C@H](CCCCNC(=O)CON)NC(=O)CCCC(=O)NCCOCCOCCOCCOCCOCCOCCOCCOCCOCCOCCOCCOCCOCCOCCOCCOCCOCCOCCOCCOCCOCCOCCOCCOCCOCCOCCOCCOCCOCCOCCOCCOCCOCCOCCOCCOCCOCCOCCOCCOCCOCCOCCOCCOCCOCCOCCOCCOC)CC4)cc3)c2n1` [AXC-936, (S)-N1-(1-((2-(1-(4-((6-amino-2-butoxy-8-oxo-7,8-dihydro-9H-purin-9-yl)methyl)benzyl)piperidin-4-yl)ethyl)amino)-6-(2-(aminooxy)acetamido)-1-oxohexan-2-yl)-N5-(PEG48)-glutaramide], 764 nM; as for `CCCCOc1nc(N)c2[nH]c(=O)n(Cc3ccc(CN4CCC(CCNC(=O)[C@H](CCCCNC(=O)CON)NC(=O)CCOCCOCCOCCOCCOCCOCCOCCOC)CC4)cc3)c2n1` [AXC-937, (S)-2-PEG8-N-(2-(1-(4-((6-amino-2-butoxy-8-oxo-7,8-dihydro-9H-purin-9-yl)methyl)benzyl)piperidin-4-yl)ethyl)-6-(2-(aminooxy)acetamido)hexanamide], 456 nM.
Take `CCCCOc1nc(N)c2[nH]c(=O)n(Cc3ccc(CN4CCC(CCNC(=O)[C@H](CCCCNC(=O)CON)NC(=O)CCCC(=O)NCCOCCOCCOCCOCCC(=O)NC(COCCC(=O)NCCOCCOCCOCCOC)(COCCC(=O)NCCOCCOCCOCCOC)COCCC(=O)NCCOCCOCCOCCOC)CC4)cc3)c2n1` [AXC-938, (S)-N1-(1-((2-(1-(4-((6-amino-2-butoxy-8-oxo-7,8-dihydro-9H-purin-9-yl)methyl)benzyl)piperidin-4-yl)ethyl)amino)-6-(2-(aminooxy)acetamido)-1-oxohexan-2-yl)-N5-mPEG4-(PEG4)3-glutaramide]: the 50% effective concentration (EC50) under setting [1] amounted to 644 nM.
As for `CCCCOc1nc(N)c2[nH]c(=O)n(Cc3ccc(CN4CCC(CCNC(=O)[C@H](CCCCNC(=O)CON)NC(=O)CCOCCOCCOCCOCCOCCOCCOCCOCCOCCOCCOCCOC)CC4)cc3)c2n1` [AXC-940, (S)—N-(2-(1-(4-((6-amino-2-butoxy-8-oxo-7,8-dihydro-9H-purin-9-yl)methyl)benzyl)piperidin-4-yl)ethyl)-6-(2-(aminooxy)acetamido)-2-PEG12-amidohexanamide], under setting [1], the EC50 amounted to 644 nM.
Same read-out and setting: as for `CCCCOc1nc(N)c2[nH]c(=O)n(Cc3ccc(CN4CCC(CCNC(=O)[C@H](CCCCNC(=O)CON)NC(=O)CCOCCOCCOCCOCCOCCOCCOCCOCCOCCOCCOCCOCCOCCOCCOCCOCCOCCOCCOCCOCCOCCOCCOCCOCCOCCOCCOCCOCCOCCOCCOCCOCCOCCOCCOCCOCCOC)CC4)cc3)c2n1` [AXC-941, (S)—N-(2-(1-(4-((6-amino-2-butoxy-8-oxo-7,8-dihydro-9H-purin-9-yl)methyl)benzyl)piperidin-4-yl)ethyl)-6-(2-(aminooxy)acetamido)-2-PEG37-amidohexanamide], the figure is 699 nM; as for `CCCCOc1nc(N)c2[nH]c(=O)n(Cc3ccc(CN4CCC(CCNC(=O)[C@H](CCCCNC(=O)CON)NC(=O)CCCc5ccccc5)CC4)cc3)c2n1` [AXC-942, (S)—N-(2-(1-(4-((6-amino-2-butoxy-8-oxo-7,8-dihydro-9H-purin-9-yl)methyl)benzyl)piperidin-4-yl)ethyl)-6-(2-(aminooxy)acetamido)-2-(4-phenylbutanamido)hexanamide], 387 nM.
Same read-out and setting: as for `CCCCOc1nc(N)c2[nH]c(=O)n(Cc3ccc(CN4CCC(CCNC(=O)[C@H](CCCCNC(=O)CON)NC(=O)CCCC(=O)NCCOCCOCCOCCOCCC(=O)NC(COCCC(=O)NCCOCCOCCOCCOCCOCCOCCOCCOC)(COCCC(=O)NCCOCCOCCOCCOCCOCCOCCOCCOC)COCCC(=O)NCCOCCOCCOCCOCCOCCOCCOCCOC)CC4)cc3)c2n1` [AXC-945, (S)—N-(2-(1-(4-((6-amino-2-butoxy-8-oxo-7,8-dihydro-9H-purin-9-yl)methyl)benzyl)piperidin-4-yl)ethyl)-6-(2-(aminooxy)acetamido)-2-dPEG4-(m-dPEG8)3-amidohexanamide], the figure is 232 nM; as for `CCCCOc1nc(N)c2[nH]c(=O)n(Cc3ccc(CN4CCC(CCNC(=O)[C@H](CCCCNC(=O)CON)NC(=O)CCCC(=O)NCCOCCOCCOCCOCCC(=O)NC(COCCC(=O)NCCOCCOCCOCCOCCOCCOCCOCCOCCOCCOCCOCCOC)(COCCC(=O)NCCOCCOCCOCCOCCOCCOCCOCCOCCOCCOCCOCCOC)COCCC(=O)NCCOCCOCCOCCOCCOCCOCCOCCOCCOCCOCCOCCOC)CC4)cc3)c2n1` [AXC-946, (S)—N-(2-(1-(4-((6-amino-2-butoxy-8-oxo-7,8-dihydro-9H-purin-9-yl)methyl)benzyl)piperidin-4-yl)ethyl)-6-(2-(aminooxy)acetamido)-2-dPEG4-(m-dPEG12)3-amidohexanamide], 1410 nM; as for `CCCCOc1nc(N)c2[nH]c(=O)n(Cc3ccc(CN4CCC(CCNC(=O)[C@H](CCCCN)NC(=O)CON)CC4)cc3)c2n1` [AXC-947, (S)-6-amino-N-(2-(1-(4-((6-amino-2-butoxy-8-oxo-7,8-dihydro-9H-purin-9-yl)methyl)benzyl)piperidin-4-yl)ethyl)-2-(2-(aminooxy)acetamido)hexanamide], 337 nM.
